Tests used:
[1] = test system: wild type rice tissue culture seedlings; assay: Establishing resistance screening conditions: herbicide concentration inhibiting growth of wild type rice seedlings; type: in vivo; conditions: minimum herbicide concentration inhibiting plant growth, 1/2 MS medium, after 7 days
Protocol: (§1) Herbicides listed in Table 5 were selected, and ½ MS medium containing different concentrations of herbicides was prepared for screening wild type rice and wheat tissue culture seedlings. After 7 days, the minimum herbicide concentrations inhibiting plant growth were selected for subsequent screen of transformed plants.

[2] = test system: wild type wheat tissue culture seedlings; assay: Establishing resistance screening conditions: herbicide concentration inhibiting growth of wild type wheat seedlings; type: in vivo; conditions: minimum herbicide concentration inhibiting plant growth, 1/2 MS medium, after 7 days
Protocol: as §1

SMILES	Selection concentration for rice (PPM) [1] [PPM]	Selection concentration for wheat (PPM) [2] [PPM]
CCCCOC(=O)[C@@H](C)Oc1ccc(Oc2ccc(C#N)cc2F)cc1 [cyhalofop-butyl]	5.3	–
CCOC(=O)[C@@H](C)Oc1ccc(Oc2nc3ccc(Cl)cc3o2)cc1 [fenoxaprop-P-ethyl]	4.5	–
CCC/C(=N\OCC)C1=C(O)CC(CC(C)SCC)CC1=O (centres unmarked) [sethoxydim]	0.33	0.33
COC(=O)[C@@H](C)Oc1ccc(Oc2ncc(C(F)(F)F)cc2Cl)cc1 [Haloxyfop-R-methyl]	0.036	0.036
COc1cc(OC)nc(NC(=O)NS(=O)(=O)c2ncccc2C(=O)N(C)C)n1 [Nicosulfuron]	0.012	0.13

Reference: patent publication US12195741B2, “Creation of herbicide resistant gene and use thereof” (INSTITUTE OF GENETICS AND DEVELOPMENTAL BIOLOGY, CHINESE …, priority 2017, dated 2025)
